Results published in patent publication US9765105B2, “Macrolide compound” (Pulike Biological Engineering, Inc., priority 2013, dated 2017).

Key:
Assay in all cases: in vitro susceptibility, MIC by mini broth dilution
Format in all cases: cell-based
[1] = tested on: Staphylococcus aureus CVCC26003; conditions: strain CVCC26003
Procedure, shortened: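 MICs were determined by mini broth dilution under NCCLS standards in CAMHB, using revived S. aureus CVCC26003 subcultured 20 h at 35° C. Compounds were two-fold serially diluted in DMSO across 11 wells, with duplicate rows. Bacterial suspension was diluted 1:200 in medium before inoculation.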

[2] = tested on: Actinobacillus pleuropneumoniae CVCC262; conditions: strain CVCC262
Procedure, shortened: (§1)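 MICs determined by mini broth dilution per NCCLS (now CLSI) standards. Strains revived from −20° C, subcultured twice on solid medium at 35° C for 20 h; compounds two-fold serially diluted in DMSO over 11 gradients, duplicate rows, bacterial suspension diluted 1:200 in liquid medium.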

Haemophilus parasuis = tested on: Haemophilus parasuis
Procedure, shortened: as §1

[3] = tested on: Pasteurella multocida CVCC399; conditions: strain CVCC399
Procedure, shortened: as §1

[4] = tested on: Streptococcus equines CVCC556; conditions: strain CVCC556
Procedure, shortened: as §1

Structure (SMILES) | MIC values, Staphylococcus aureus CVCC26003 [1] | MIC values, Actinobacillus pleuropneumoniae CVCC262 [2] | MIC values, Haemophilus parasuis (Haemophilus parasuis) | MIC values, Pasteurella multocida CVCC399 [3] | MIC values, Streptococcus equines CVCC556 [4]
CCCN1CC(C)C(O)C(C)(O)C(CC)OC(=O)C(C)C(OC2CC(C)(OC)C(O)(CNC(CO)CO)C(C)O2)C(C)C(OC2OC(C)CC(N(C)C)C2O)C(C)(O)CC1C (centres unmarked) [syzx-145] | 1 ug/mi | 64 ug/mi | 0.5 ug/mi | 2 ug/mi | 0.5 ug/mi
CCCN1C[C@H](C)[C@@H](O)[C@](C)(O)[C@@H](CC)OC(=O)[C@H](C)[C@@H](O[C@H]2C[C@@](C)(OC)[C@](O)(CNc3ccccc3F)[C@H](C)O2)[C@H](C)[C@@H](O[C@@H]2O[C@H](C)C[C@H](N(C)C)[C@H]2O)[C@](C)(O)C[C@H]1C [syzx-168] | 0.25 ug/mi | 0.25 ug/mi | 0.25 ug/mi | 1 ug/mi | 0.25 ug/mi
CCCC(C)NC[C@]1(O)[C@H](C)O[C@@H](O[C@H]2[C@H](C)[C@@H](O[C@@H]3O[C@H](C)C[C@H](N(C)C)[C@H]3O)[C@](C)(O)C[C@@H](C)NC[C@H](C)[C@@H](O)[C@](C)(O)[C@@H](CC)OC(=O)[C@@H]2C)C[C@@]1(C)OC (some centres unmarked) [syzx-63] | 0.5 ug/mi | 0.5 ug/mi | ≦0.25 ug/mi | ≦0.25 ug/mi | ≦0.25 ug/mi
CCCN1C[C@H](C)[C@@H](O)[C@](C)(O)[C@@H](CC)OC(=O)[C@H](C)[C@@H](O[C@H]2C[C@@](C)(OC)[C@](O)(CNOCc3ccccc3)[C@H](C)O2)[C@H](C)[C@@H](O[C@@H]2O[C@H](C)C[C@H](N(C)C)[C@H]2O)[C@](C)(O)C[C@H]1C [syzx-182] | 1 ug/mi | 0.5 ug/mi | 0.5 ug/mi | 4 ug/mi | 0.5 ug/mi
CC[C@H]1OC(=O)[C@H](C)[C@@H](O[C@H]2C[C@@](C)(OC)[C@](O)(CNc3ccccc3F)[C@H](C)O2)[C@H](C)[C@@H](O[C@@H]2O[C@H](C)C[C@H](N(C)C)[C@H]2O)[C@](C)(O)C[C@@H](C)NC[C@H](C)[C@@H](O)[C@]1(C)O [syzx-68, (2R,3S,4R,5S,8R,10R,11R,12S,13S,14R)-13-[(2,6-dideoxy-3-C-methyl-3-O-methyl-4-C-[(2-fluoro-phenyl-amino)-methyl]-α-L-ribopyranosyl)oxy]-2-ethyl-3,4,10-trihydroxy-3,5,8,10,12,14-hexamethyl-11-[[3,4,6-trideoxy-3-(dimethylamino)-β-D-xylo-hexopyranosy]oxy]-1-oxa-7-azacyclopentadecan-15-one] | ≦0.25 ug/mi | 8 ug/mi | ≦0.25 ug/mi | 8 ug/mi | ≦0.25 ug/mi
CC[C@H]1OC(=O)[C@H](C)[C@@H](O[C@H]2C[C@@](C)(OC)[C@](O)(CNC(C)CCCN(C)C)[C@H](C)O2)[C@H](C)[C@@H](O[C@@H]2O[C@H](C)C[C@H](N(C)C)[C@H]2O)[C@](C)(O)C[C@@H](C)NC[C@H](C)[C@@H](O)[C@]1(C)O (stereo partly drawn) [syzx-59, (2R,3S,4R,5S,8R,10R,11R,12S,13S,14R)-13-[(2,6-dideoxy-3-C-methyl-3-O-methyl-4-C-[(1-methyl-4-dimethylaminobutylamino)-methyl]-α-L-ribopyranosyl)oxy]-2-ethyl-3,4,10-trihydroxy-3,5,8,10,12,14-hexamethyl-11-[[3,4,6-trideoxy-3-(dimethylamino)-β-D-xylo-hexopyranosy]oxy]-1-oxa-7-azacyclopentadecan-15-one] | 1 ug/mi | 32 ug/mi | 0.5 ug/mi | 2 ug/mi | 2 ug/mi
CC[C@H]1OC(=O)[C@H](C)[C@@H](O[C@H]2C[C@@](C)(OC)[C@](O)(Cn3cccc3)[C@H](C)O2)[C@H](C)[C@@H](O[C@@H]2O[C@H](C)C[C@H](N(C)C)[C@H]2O)[C@](C)(O)C[C@@H](C)NC[C@H](C)[C@@H](O)[C@]1(C)O [syzx-7, (2R,3S,4R,5S,8R,10R,11R,12S,13S,14R)-13-[(2,6-dideoxy-3-C-methyl-3-O-methyl-4-C-[(pyrryl)methyl]-α-L-ribopyranosyl)oxy]-2-ethyl-3,4,10-trihydroxy-3,5,8,10,12,14-hexamethyl-11-[[3,4,6-trideoxy-3-(dimethylamino)-β-D-xylo-hexopyranosy]oxy]-1-oxa-7-azacyclopentadecan-15-one] | ≦0.25 ug/mi | 2 ug/mi | ≦0.25 ug/mi | 0.25 ug/mi | ≦0.25 ug/mi

More lines, now with the values ahead:

MIC values, Staphylococcus aureus CVCC26003 [1] | MIC values, Actinobacillus pleuropneumoniae CVCC262 [2] | MIC values, Haemophilus parasuis (Haemophilus parasuis) | MIC values, Pasteurella multocida CVCC399 [3] | MIC values, Streptococcus equines CVCC556 [4] | Structure (SMILES)
0.25 ug/mi | 0.5 ug/mi | 0.25 ug/mi | 0.5 ug/mi | 0.25 ug/mi | CCCN1C[C@H](C)[C@@H](O)[C@](C)(O)[C@@H](CC)OC(=O)[C@H](C)[C@@H](O[C@H]2C[C@@](C)(OC)[C@](O)(CN3CCNCC3)[C@H](C)O2)[C@H](C)[C@@H](O[C@@H]2O[C@H](C)C[C@H](N(C)C)[C@H]2O)[C@](C)(O)C[C@H]1C [syzx-136]
1 ug/mi | 1 ug/mi | 0.5 ug/mi | 0.25 ug/mi | 1 ug/mi | CCCN1C[C@H](C)[C@@H](O)[C@](C)(O)[C@@H](CC)OC(=O)[C@H](C)[C@@H](O[C@H]2C[C@@](C)(OC)[C@](O)(CNC3CCCCCC3)[C@H](C)O2)[C@H](C)[C@@H](O[C@@H]2O[C@H](C)C[C@H](N(C)C)[C@H]2O)[C@](C)(O)C[C@H]1C [syzx-203]
0.25 ug/mi | 0.25 ug/mi | 0.25 ug/mi | 0.5 ug/mi | 0.25 ug/mi | CCCN1C[C@H](C)[C@@H](O)[C@](C)(O)[C@@H](CC)OC(=O)[C@H](C)[C@@H](O[C@H]2C[C@@](C)(OC)[C@](O)(CNCCCO)[C@H](C)O2)[C@H](C)[C@@H](O[C@@H]2O[C@H](C)C[C@H](N(C)C)[C@H]2O)[C@](C)(O)C[C@H]1C [syzx-146]
